# Measured values as given in patent publication US20150305333A1, “USE OF GLUCOSAMINE AMIDES AS PLANT GROWTH AND YIELD ENHANCERS” (PIONEER HI-BRED INTERNATIONAL, INC., priority 2012, published 2015).
# What was measured:
# soybean seeds = test: Petri dish seed germination assay, soybean; format: in vivo
# Description: A series of Petri dish seed assays was conducted to evaluate the effects NPG on the seed germination rates of corn, soybean, and canola seeds subjected to cold stress, salt stress and non-stressed conditions (salt stress only for canola). Assays were performed with ten replications of ten seeds/plate (100 total seeds). NPG was applied to seeds at the specified concentrations prior to being placed in Petri plates. Seeds designated for Salt Stress Experiments 1 & 2 were placed in Petri dishes containing a 100 mM NaCl solution and incubated at 21° C.-22° C. in the dark. Cold stress Petri dishes were incubated at 15° C. in the dark. Untreated Controls were incubated at 21° C.-22° C. in the dark as were seeds utilized in the separately conducted non-stressed germination assays. Data was recorded as percent germination at designated times after plating. Statistical analyses were performed using one-way Anova and Kruskal-Wallis one-way analysis of variance on rank combined with Dunn's all pairwise multiple comparison procedure (α=0.05).
# [1] = tested on: canola (Brassica napus) Pioneer hybrid 45H29; test: Canola field trials 2011: early growth, days to maturity, height, yield; format: in vivo; conditions: at plant maturity, averaged across three locations; NPG 10^−7 M, LCO/rhizobia at manufacturers' recommended rates
# Description: Three canola (Brassica napus) field trials were conducted in the spring of 2011 to evaluate the effects of NPG on early growth, days to maturity, height and yield for Pioneer hybrid 45H29 planted at research sites near Carman, Neepawa, and Treherne (Manitoba, Canada) in 2011. Seed treatments included an Untreated Control, 10^−7 M NPG, and a mixture of a commercial LCO and rhizobia. An aqueous solution of NPG was applied at 0.25 L/100 kg seed by soaking the seeds in aqueous solutions of the respective treatments for 15 minutes followed by air drying on a tray. Untreated Control seeds were treated identically with the exception of being soaked in water without added NPG, LCO or rhizobia. The LCO/rhizobia mixture was applied to seeds at the manufacturers' recommended rates. […]
# Early growth was scored on a 1-9 scale using a subjective evaluation of the ‘healthiness’ of plants and the soil surface area covered by their leaves when the plants are in the 4-6 leaf stage. […]
# Days to maturity was measured from time of planting to physiological maturity, which was recorded in days from planting until the seeds in the pod, one third of the way up the main raceme, changed color to black in 50% of the plants in a given row or plot. […]
# Plant height was measured at plant maturity. […]
# Yield was measured in bushels per acre of mature seed. […]
smiles,measurement,setting,value
"CCCCCCC=CCCCCCCCC(=O)NC1C(OC)OC(CO)C(O)C1O [NPG, Methyl 2-deoxy-2-N-(hexadece-9,10-cis-eneoyl)-β-D-glucopyranoside]",Soybean Seed Germination,"soybean seeds; Cold Stress (15° C.), 10^−6M × 4 Times, 30 HAP",29a %
same,Soybean Seed Germination,"soybean seeds; Cold Stress (15° C.), 10^−6M × 4 Times, 36 HAP",58a %
same,Soybean Seed Germination,"soybean seeds; Cold Stress (15° C.), 10^−6M × 4 Times, 44 HAP",81a %
same,Soybean Seed Germination,"soybean seeds; Cold Stress (15° C.), 10^−6M × 4 Times, 50 HAP",90a %
same,Soybean Seed Germination,"soybean seeds; Cold Stress (15° C.), 10^−6M × 4 Times, 60 HAP",97a %
same,Soybean Seed Germination,"soybean seeds; Cold Stress (15° C.), 10^−6M, 30 HAP",26a %
same,Soybean Seed Germination,"soybean seeds; Cold Stress (15° C.), 10^−6M, 36 HAP",58a %
same,Soybean Seed Germination,"soybean seeds; Cold Stress (15° C.), 10^−6M, 44 HAP",80a %
same,Soybean Seed Germination,"soybean seeds; Cold Stress (15° C.), 10^−6M, 50 HAP",90a %
same,Soybean Seed Germination,"soybean seeds; Cold Stress (15° C.), 10^−6M, 60 HAP",96a %
same,Soybean Seed Germination,"soybean seeds; Cold Stress (15° C.), 10^−7M, 30 HAP",23a %
same,Soybean Seed Germination,"soybean seeds; Cold Stress (15° C.), 10^−7M, 36 HAP",51a %
same,Soybean Seed Germination,"soybean seeds; Cold Stress (15° C.), 10^−7M, 44 HAP",84a %
same,Soybean Seed Germination,"soybean seeds; Cold Stress (15° C.), 10^−7M, 50 HAP",91a %
same,Soybean Seed Germination,"soybean seeds; Cold Stress (15° C.), 10^−7M, 60 HAP",95a %
same,Soybean Seed Germination,"soybean seeds; Non-Stressed, 10^−6M × 4 Times, 27 HAP",72a %
same,Soybean Seed Germination,"soybean seeds; Non-Stressed, 10^−6M × 4 Times, 34 HAP",88a %
same,Soybean Seed Germination,"soybean seeds; Non-Stressed, 10^−6M × 4 Times, 45 HAP",94a %
same,Soybean Seed Germination,"soybean seeds; Non-Stressed, 10^−6M, 27 HAP",70a %
same,Soybean Seed Germination,"soybean seeds; Non-Stressed, 10^−6M, 34 HAP",93a %
same,Soybean Seed Germination,"soybean seeds; Non-Stressed, 10^−6M, 45 HAP",97a %
same,Soybean Seed Germination,"soybean seeds; Salt Stress (100 mM NaCl), 10^−6M × 4 Times, 27 HAP",17a %
same,Soybean Seed Germination,"soybean seeds; Salt Stress (100 mM NaCl), 10^−6M × 4 Times, 34 HAP",76ab %
same,Soybean Seed Germination,"soybean seeds; Salt Stress (100 mM NaCl), 10^−6M × 4 Times, 45 HAP",89ab %
same,Soybean Seed Germination,"soybean seeds; Salt Stress (100 mM NaCl), 10^−6M × 4 Times, 55 HAP",96a %
same,Soybean Seed Germination,"soybean seeds; Salt Stress (100 mM NaCl), 10^−6M × 4 Times, 65 HAP",99a %
same,Soybean Seed Germination,"soybean seeds; Salt Stress (100 mM NaCl), 10^−6M, 27 HAP",22a %
same,Soybean Seed Germination,"soybean seeds; Salt Stress (100 mM NaCl), 10^−6M, 34 HAP",73ab %
same,Soybean Seed Germination,"soybean seeds; Salt Stress (100 mM NaCl), 10^−6M, 45 HAP",83ab %
same,Soybean Seed Germination,"soybean seeds; Salt Stress (100 mM NaCl), 10^−6M, 55 HAP",95a %
same,Soybean Seed Germination,"soybean seeds; Salt Stress (100 mM NaCl), 10^−6M, 65 HAP",99a %
same,Plant height,[1],114.2 cm
